In patent US20110190155A1 (Korea Institute of Science and Technology, priority 2007, published 2011):

Key:
[1] = tested on: BEAS-2B cells
Protocol: Total RNA was extracted from the cells using trizol reagent (Invitrogen life technologies, USA) according to the manufacturer's instruction and the extracted RNA was purified by using RNeasy mini kit (Qiagen, USA). The genomic DNA was eliminated during the purification of RNA using RNase-free DNase set (Qiagen, USA). The total RNA was quantified by spectrophotometer and purity was measured by Agilent 2100 Bioanalyzer (Agilent Technologies, USA).
30 μg of the total RNA and 2 μg (1 μg/μl) of oligo (dT) primer were mixed, followed by reaction for 10 minutes at 65° C. Then, the reaction mixture was put in ice, followed by annealing.
At this time, the two samples were mixed and purified by Microcon YM-30 column (Millipore, USA).
Hybridization and washing were performed according to the instruction of GeneCneck Co., Ltd. Hybridization was performed in a 62° C. oven for 12 hours. At this time, 44 k whole human genome oligo microarray (Agilent, USA) was used as a DNA microarray chip. […]
Scanning of the hybridized images on the slide was performed by using Genepix 4000B (Axon Instruments, USA). Fluorescence images of the chip washed to eliminate non-binding genes were obtained by laser fluorescence scanner. […] The scanned images were analyzed by GenePix 4.1 software (Axon Instruments, USA) to calculate the gene expression rate.

[2] = cited from earlier work
[3] = in vitro; assay type: cell-based; conditions: human
Protocol: BEAS-2B (CRL-9609, ATCC, USA), a human bronchial epithelial cell line, was cultured in a T 75 flask containing DMEM (Gibco-BRL, USA) supplemented with 10% FBS at the concentration of 5×10^5 cells/ml. […] The concentration of the vehicle was less than 0.1% in every experiment.
MTT assay with the BEAS-2B cell line was performed according to the method of Mossman et al (J. Immunol. Methods, 65, 55-63, 1983). […] 48 hours later, MTT (3-[4,5-dimethylthiazol-2-yl]-2,5-diphenyltetra zolium bromide) 5 mg/ml was added at the concentration of 5 mg/ml, followed by culture at 37° C. for 3 hours. Then, medium was eliminated and generated formazan crystal was dissolved in 500 μl of DMSO. The solution was aliquoted in a 96 well-plate and OD540 was measured.

[4] = patients treated with amiodarone

**Q.** Which “genes identified to be up-regulated” value ([1]; 44 genes out of 44,290 genes, Cy5/Cy3 more than 2.0 fold) does the source give for `CCCCc1oc2ccccc2c1C(=O)c1cc(I)c(OCCN(CC)CC)c(I)c1` [amiodarone] here?
**A.** Its value is 0.1%.

**Q.** What about the “genes identified to be down-regulated” value ([1]; 45 genes out of 44,290 genes, Cy5/Cy3 less than 0.5 fold) of the same compound?
**A.** The value was 0.10%.

**Q.** What about the “patients exhibiting boredom, fatigue, tremor, walking difficulty and peripheral neuropathy” value [2, 4] of the same compound?
**A.** The value was 20-40%.

**Q.** What about the “patients showing gastrointestinal disorder, nausea, vomiting, constipation and loss of appetite” value [2, 4] of the same compound?
**A.** Its value is “Approximately 25%”.

**Q.** And the “patients treated with amiodarone exhibiting side effects” value ([2]; patients)?
**A.** The value was “approximately 50%”.

**Q.** What about the IC20 at 48 h [3] of the same compound?
**A.** Its IC20 at 48 h is 29.4 µM.
